Assay results taken from publication PMC5698469, “Carrageenan catabolism is encoded by a complex regulon in marine heterotrophic bacteria” (Nature Communications, 2017).

Experiments:
ZGAL_4655 = biological target: T1, ZGAL_4655 (Zobellia galactanivorans, UniProt G0L4M6); test: beta-galactosidase activity on artificial substrate; format: biochemical
T1 construct: gene bgaF
T1 sequence (G0L4M6 18-845): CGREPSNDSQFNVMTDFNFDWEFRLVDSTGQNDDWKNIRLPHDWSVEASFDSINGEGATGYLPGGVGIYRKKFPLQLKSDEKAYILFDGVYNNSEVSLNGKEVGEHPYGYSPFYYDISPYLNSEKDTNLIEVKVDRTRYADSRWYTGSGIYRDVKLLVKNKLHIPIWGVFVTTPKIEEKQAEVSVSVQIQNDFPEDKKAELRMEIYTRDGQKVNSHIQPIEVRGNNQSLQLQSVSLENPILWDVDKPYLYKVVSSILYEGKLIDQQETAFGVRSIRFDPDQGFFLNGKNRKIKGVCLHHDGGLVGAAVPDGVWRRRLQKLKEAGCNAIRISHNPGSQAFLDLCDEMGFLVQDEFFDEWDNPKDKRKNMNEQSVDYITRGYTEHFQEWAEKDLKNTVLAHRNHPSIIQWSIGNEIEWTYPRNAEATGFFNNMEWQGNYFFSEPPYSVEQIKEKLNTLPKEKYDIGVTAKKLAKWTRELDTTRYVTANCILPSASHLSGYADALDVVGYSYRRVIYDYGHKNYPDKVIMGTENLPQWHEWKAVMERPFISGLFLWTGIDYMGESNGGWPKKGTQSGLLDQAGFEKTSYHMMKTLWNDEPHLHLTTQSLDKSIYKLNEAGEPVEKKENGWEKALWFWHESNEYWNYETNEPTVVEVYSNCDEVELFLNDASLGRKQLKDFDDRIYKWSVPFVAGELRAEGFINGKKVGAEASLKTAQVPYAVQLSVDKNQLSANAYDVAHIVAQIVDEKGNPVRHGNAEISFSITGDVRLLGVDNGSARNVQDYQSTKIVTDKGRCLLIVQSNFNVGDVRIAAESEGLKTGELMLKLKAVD

ZGAL_3633 = biological target: T2, ZGAL_3633 (Zobellia galactanivorans, UniProt G0L1N0); test: as above; format: biochemical
T2 construct: gene bgaB
T2 sequence (G0L1N0 21-825): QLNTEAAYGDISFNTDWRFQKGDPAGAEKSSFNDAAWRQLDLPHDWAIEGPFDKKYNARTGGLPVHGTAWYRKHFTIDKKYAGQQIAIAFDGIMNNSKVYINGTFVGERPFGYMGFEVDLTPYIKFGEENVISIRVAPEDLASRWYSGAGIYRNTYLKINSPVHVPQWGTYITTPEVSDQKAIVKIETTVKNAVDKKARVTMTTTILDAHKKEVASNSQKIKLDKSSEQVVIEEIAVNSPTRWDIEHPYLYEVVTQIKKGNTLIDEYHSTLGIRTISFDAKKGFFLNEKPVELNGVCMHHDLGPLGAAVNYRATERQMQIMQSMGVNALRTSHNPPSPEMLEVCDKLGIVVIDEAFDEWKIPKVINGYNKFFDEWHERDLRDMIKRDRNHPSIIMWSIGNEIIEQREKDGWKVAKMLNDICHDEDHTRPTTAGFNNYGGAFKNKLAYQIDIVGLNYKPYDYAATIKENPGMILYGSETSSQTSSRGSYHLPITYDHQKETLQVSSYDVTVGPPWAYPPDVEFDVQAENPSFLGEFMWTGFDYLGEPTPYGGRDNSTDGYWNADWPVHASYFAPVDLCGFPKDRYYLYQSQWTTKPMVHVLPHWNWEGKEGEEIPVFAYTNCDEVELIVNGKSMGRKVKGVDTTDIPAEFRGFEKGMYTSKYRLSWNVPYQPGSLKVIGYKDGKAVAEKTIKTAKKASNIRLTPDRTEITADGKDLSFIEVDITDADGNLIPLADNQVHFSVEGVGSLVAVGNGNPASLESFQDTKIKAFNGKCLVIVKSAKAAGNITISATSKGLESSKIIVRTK

`O=[N+]([O-])c1ccc(O[C@@H]2O[C@H](CO)[C@H](O)[C@H](O)[C@H]2O)cc1` [pNP-beta-D-galactopyranoside] was tested, and the “beta-galactosidase activity on artificial substrate” value (ZGAL_4655) was “recombinant enzymes displayed beta-galactosidase activity on an artificial substrate (pNP-beta-D-galactopyranoside” and the “beta-galactosidase activity on artificial substrate” value (ZGAL_3633) was “recombinant enzymes displayed beta-galactosidase activity on an artificial substrate (pNP-beta-D-galactopyranoside”.
